Literature values in patent US8349888B2, “Phytoestrogenic isoflavone compositions, their preparation and use thereof for protection against and treatment of radiation injury” (priority 2000, dated 2013).

Key:
[1] = radioprotective doses

SMILES	efficacy if given after radiation (mice)	behavioral toxicity [1]
O=c1cc(-c2ccc(O)cc2)oc2c([C@@H]3O[C@H](CO)[C@@H](O)[C@H](O)[C@H]3O)c(O)c([C@@H]3O[C@H](CO)[C@@H](O)[C@H](O)[C@H]3O)c(O)c12 [vicenin]	not effective at all	
C[C@]12CC[C@@H]3c4ccc(O)cc4CC[C@H]3[C@@H]1CC[C@@H]2O [17-beta-estradiol]		behaviorally toxic
O=c1cc(-c2ccc(O)c(O)c2)oc2c([C@@H]3O[C@H](CO)[C@@H](O)[C@H](O)[C@H]3O)c(O)cc(O)c12 [orientin]	not effective at all	
